Columns and labels:
Format in all cases: in vivo
Septoria tritici = assay: Test C: wheat seedlings sprayed with test suspension, inoculated with Septoria tritici (wheat leaf blotch), visual disease rating
Description: (§1) General protocol for preparing test suspensions for Tests A-E: the test compounds were first dissolved in acetone in an amount equal to 3% of the final volume and then suspended at the desired concentration (in ppm) in acetone and purified water (50/50 mix by volume) containing 250 ppm of the surfactant Trem® 014 (polyhydric alcohol esters). The resulting test suspensions were then used in Tests A-E. Samples were applied to plants at either a 10 ppm (**), 40 ppm, 50 ppm (*) or 200 ppm (#) test solution to the point of run-off on the test plants with the equivalent of a rate of 40 g ai/ha, 160 g ai/ha, 200 g ai/ha, or 800 g ai/ha, respectively.
The test suspension was sprayed to the point of run-off on wheat seedlings. The following day the seedlings were inoculated with a spore suspension of Septoria tritici (the causal agent of wheat leaf blotch) and incubated in a saturated atmosphere at 24° C. for 48 h, and then moved to a growth chamber at 20° C. for 21 days, after which time visual disease ratings were made.
(§2) Results for Tests A-E are given in Table A. In the Table, a rating of 100 indicates 100% disease control and a rating of 0 indicates no disease control (relative to the controls). A dash (-) indicates no test results.

[1] = system: Erysiphe graminis f. sp. tritici; assay: Test E: wheat seedlings sprayed with test suspension, inoculated with Erysiphe graminis f. sp. tritici (wheat powdery mildew), visual disease rating
Description: as §1
The test suspension was sprayed to the point of run-off on wheat seedlings. The following day the seedlings were inoculated with a spore dust of Erysiphe graminis f. sp. tritici, (the causal agent of wheat powdery mildew) and incubated in a growth chamber at 20° C. for 7 or 8 days, after which time visual disease ratings were made.
as §2

[2] = system: Puccinia recondite f. sp. tritici; assay: Test D: wheat seedlings sprayed with test suspension, inoculated with Puccinia recondite f. sp. tritici (wheat leaf rust), visual disease rating
Description: as §1
The test suspension was sprayed to the point of run-off on wheat seedlings. The following day the seedlings were inoculated with a spore suspension of Puccinia recondite f. sp. tritici; (the causal agent of wheat leaf rust) and incubated in a saturated atmosphere at 20° C. for 24 h, and then moved to a growth chamber at 20° C. for 6 days, after which time visual disease ratings were made.
as §2

[3] = system: Stagonospora nodorum (also known as Septoria nodorum); assay: Test B: wheat seedlings sprayed with test suspension, inoculated with Stagonospora nodorum (wheat glume blotch), visual disease rating
Description: as §1
The test suspension was sprayed to the point of run-off on wheat seedlings. The following day the seedlings were inoculated with a spore suspension of Stagonospora nodorum (also known as Septoria nodorum; the causal agent of wheat glume blotch) and incubated in a saturated atmosphere at 20° C. for 48 h, and then moved to a growth chamber at 20° C. for 6 days, after which time visual disease ratings were made.
as §2

[4] = Cmpd. No. unmarked, 100 = 100% disease control, 0 = no control relative to controls
[5] = Cmpd. No. marked '*' (other test rate; meaning of mark not shown)
[6] = Cmpd. No. marked '**' (other test rate; meaning of mark not shown)

SMILES | Test C rating (% disease control) (Septoria tritici; [4]) [%] | Test E rating (% disease control) [1, 4] [%] | Test D rating (% disease control) [2, 4] [%] | Test B rating (% disease control) [3, 4] [%] | other results
Cn1nc(C(F)F)c(C(=O)N(Cc2ccc(-n3ccc(C(F)(F)F)n3)cc2Br)C2CC2)c1F [compound 106] | 96 | 97 | 99 | 100 | 
CC(c1cc(-n2ccc(C(F)(F)F)n2)ccc1Cl)N(C(=O)c1c(C(F)F)nn(C)c1F)C1CC1 (stereo not drawn) [compound 135] |  |  |  |  | Test C rating (% disease control) (Septoria tritici; [5]): 99%; Test E rating (% disease control) [1, 5]: 95%; Test D rating (% disease control) [2, 5]: 80%; Test B rating (% disease control) [3, 5]: 100%
CC(c1ccc(C(F)(F)F)c(-n2ccc(C(F)(F)F)n2)c1)N(C(=O)c1c(C(F)F)nn(C)c1F)C1CC1 (stereo not drawn) [compound 51] | 88 | 84 | 0 | 100 | 
Cc1ccc(-n2ccc(C(F)(F)F)n2)cc1CN(C(=O)c1c(C(F)F)nn(C)c1F)C1CC1 [compound 84] |  |  |  |  | Test C rating (% disease control) (Septoria tritici; [5]): 98%; Test E rating (% disease control) [1, 5]: 94%; Test D rating (% disease control) [2, 5]: 89%; Test B rating (% disease control) [3, 5]: 100%
Cc1cnn(-c2ccc(CN(C(=O)c3c(C(F)F)nn(C)c3F)C3CC3)c(Cl)c2)c1 [compound 144] | 99 | 99 | 97 | 100 | 
CC(C)c1cc(-n2ccc(C(F)(F)F)n2)ccc1CN(C(=O)c1c(C(F)F)nn(C)c1F)C1CC1 [compound 121] | 95 | 99 | 100 | 100 | 
CC(c1cc(-n2ccc(C(F)(F)F)n2)ccc1OC(F)(F)F)N(C(=O)c1c(C(F)F)nn(C)c1F)C1CC1 (stereo not drawn) [compound 133] |  |  |  |  | Test C rating (% disease control) (Septoria tritici; [5]): 92%; Test E rating (% disease control) [1, 5]: 94%; Test D rating (% disease control) [2, 5]: 68%; Test B rating (% disease control) [3, 5]: 100%
Cn1nc(C(F)F)c(C(=O)N(Cc2ccc(-n3ccc(Br)n3)cc2Cl)C2CC2)c1F [compound 47] | 99 | 99 | 98 | 100 | 
Cc1ccc(-n2ccc(C(F)(F)F)n2)cc1C(C)N(C(=O)c1cn(C)nc1C(F)F)C1CC1 (stereo not drawn) [compound 45] | 96 | 90 | 9 | 100 | 
Cn1nc(C(F)F)c(C(=O)N(Cc2ccc(-n3ccc(C(F)(F)F)n3)c(Br)c2)C2CC2)c1F [compound 98] |  |  |  |  | Test C rating (% disease control) (Septoria tritici; [6]): 94%; Test E rating (% disease control) [1, 6]: 84%; Test D rating (% disease control) [2, 6]: 86%; Test B rating (% disease control) [3, 6]: 64%
Cn1cc(C(=O)N(Cc2c(Cl)cc(-n3ccc(Br)n3)cc2Cl)C2CC2)c(C(F)F)n1 [compound 40] | 99 | 89 | 99 | 99 | 
CC(c1cc(-n2ccc(C(F)(F)F)n2)cc(C(F)(F)F)c1)N(C(=O)c1cn(C)nc1C(F)F)C1CC1 (stereo not drawn) [compound 42] | 39 | 0 | 0 | 0 | 
CC(c1ccc(-n2ccc(C(F)(F)F)n2)cc1Cl)N(C(=O)c1c(C(F)F)nn(C)c1F)C1CC1 (stereo not drawn) [compound 72] | 100 | 99 | 99 | 100 | 
Cn1nc(C(F)F)c(C(=O)N(Cc2ccc(-n3ccc(C(F)(F)F)n3)cc2Cl)C2COC2)c1F [Compound 164] |  |  |  |  | Test C rating (% disease control) (Septoria tritici; [6]): 46%; Test E rating (% disease control) [1, 6]: 0%; Test D rating (% disease control) [2, 6]: 0%; Test B rating (% disease control) [3, 6]: 0%
Cn1nc(C(F)F)c(C(=O)N(Cc2ccc(-n3cncn3)cc2Cl)C2CC2)c1F [compound 145] | 95 | 0 | 0 | 95 | 
Cn1cc(C(=O)N(Cc2ccc(-n3cccn3)cc2Cl)C2CC2)c(C(F)F)n1 [compound 48] | 98 | 73 | 0 | 100 | 
Cn1nc(C(F)F)c(C(=O)N(Cc2ccc(-n3ccnn3)cc2Cl)C2CC2)c1F [compound 66] | 94 | 0 | 28 | 97 | 
Cn1nc(C(F)F)c(C(=O)N(Cc2ccc(-n3ccc(C(F)(F)F)n3)cc2F)C2CC2)c1F [compound 68] | 97 | 99 | 91 | 100 | 
Cn1nc(C(F)F)c(C(=O)N(Cc2ccc(-n3cnc(Br)n3)cc2Cl)C2CC2)c1F [compound 147] | 93 | 0 | 0 | 0 | 
Cn1nc(C(F)F)c(C(=O)N(Cc2ccc(-n3ccc(C(F)(F)F)n3)c(Cl)c2)C2CC2)c1F [compound 99] |  |  |  |  | Test C rating (% disease control) (Septoria tritici; [6]): 96%; Test E rating (% disease control) [1, 6]: 89%; Test D rating (% disease control) [2, 6]: 97%; Test B rating (% disease control) [3, 6]: 59%
CC(c1cc(-n2ccc(C(F)(F)F)n2)ccc1OC(F)(F)F)N(C(=O)c1cn(C)nc1C(F)F)C1CC1 (stereo not drawn) [compound 130] | 28 | 72 | 68 | 93 | 
COc1ccc(-n2ccc(C(F)(F)F)n2)cc1C(C)N(C(=O)c1cn(C)nc1C(F)F)C1CC1 (stereo not drawn) [compound 120] | 92 | 95 |  | 100 | 
CC(C)c1ccc(-n2ccc(C(F)(F)F)n2)cc1CN(C(=O)c1c(C(F)F)nn(C)c1F)C1CC1 [compound 88] |  |  |  |  | Test C rating (% disease control) (Septoria tritici; [5]): 94%; Test E rating (% disease control) [1, 5]: 98%; Test D rating (% disease control) [2, 5]: 99%
Cn1nc(C(F)F)c(C(=O)N(Cc2ncc(-n3ccc(C(F)(F)F)n3)cc2Cl)C2CC2)c1F [compound 122] |  |  |  |  | Test C rating (% disease control) (Septoria tritici; [6]): 96%; Test E rating (% disease control) [1, 6]: 87%; Test D rating (% disease control) [2, 6]: 99%
CC(c1ccc(Cl)c(-n2ccc(C(F)(F)F)n2)c1)N(C(=O)c1c(C(F)F)nn(C)c1F)C1CC1 (stereo not drawn) [compound 74] | 99 | 93 | 27 |  | 
Cn1nc(C(F)F)c(C(=O)N(Cc2ncc(-n3ccc(C(F)(F)F)n3)cc2Br)C2CC2)c1F [compound 91] |  |  |  |  | Test C rating (% disease control) (Septoria tritici; [6]): 100%; Test E rating (% disease control) [1, 6]: 73%; Test D rating (% disease control) [2, 6]: 98%

— patent US10098350B2, “Fungicidal amides” (E. I. DU PONT DE NEMOURS AND COMPANY, priority 2013, dated 2018)
